# Source: ChEMBL document CHEMBL1150522, “Preparation and antifungal activity of fusacandin analogs: C-6 sidechain esters” (1996)
# Assays:
# Format in all cases: functional
# Candida albicans [1] = experiment: Minimum inhibitory concentration against Candida albicans (ATCC 38247) in the absence of serum.
# Candida albicans [2] = experiment: Minimum inhibitory concentration against Candida albicans (ATCC 62376) in the presence of serum
# Candida albicans [3] = experiment: Minimum inhibitory concentration against Candida albicans (CCH 442) in the absence of serum.
# Candida albicans [4] = experiment: Minimum inhibitory concentration against Candida albicans (ATCC 10231) in the presence of serum
# Candida albicans [5] = experiment: Minimum inhibitory concentration against Candida albicans (ATCC 10231) in the absence of serum.
# Candida albicans [6] = experiment: Minimum inhibitory concentration against Candida albicans (579a) in the absence of serum.
# Candida albicans [7] = experiment: Minimum inhibitory concentration against Candida albicans (579a) in the presence of serum
# Candida albicans [8] = experiment: Minimum inhibitory concentration against Candida albicans (CCH 442) in the presence of serum
# Candida albicans [9] = experiment: Minimum inhibitory concentration against Candida albicans (ATCC 38247) in the presence of serum
# Candida albicans [10] = experiment: Minimum inhibitory concentration against Candida albicans (ATCC 62376) in the absence of serum.
Structure (SMILES),MIC (Candida albicans [1]) [µg/mL],MIC (Candida albicans [2]) [µg/mL],MIC (Candida albicans [3]) [µg/mL],MIC (Candida albicans [4]) [µg/mL],MIC (Candida albicans [5]) [µg/mL],MIC (Candida albicans [6]) [µg/mL],MIC (Candida albicans [7]) [µg/mL],MIC (Candida albicans [8]) [µg/mL],MIC (Candida albicans [9]) [µg/mL],MIC (Candida albicans [10]) [µg/mL]
CCCCC/C=C/C=C/[C@@H](O)C/C=C/C=C/C(=O)O[C@@H]1[C@@H](O)[C@H](c2c(O)cc(O)cc2CO)O[C@H](CO)[C@H]1O[C@@H]1O[C@H](COC(=O)c2ccc(-c3ccc(OC)cc3)cc2)[C@H](O)[C@H](O)[C@H]1O[C@@H]1O[C@H](CO)[C@H](O)[C@H](O)[C@H]1O,25,0.78,6.25,0.78,12.5,12.5,1.56,0.78,3.12,12.5
CCCCC/C=C/C=C/[C@@H](O)C/C=C/C=C/C(=O)O[C@@H]1[C@@H](O)[C@H](c2c(O)cc(O)cc2CO)O[C@H](CO)[C@H]1O[C@@H]1O[C@H](COC(=O)c2ccccc2)[C@H](O)[C@H](O)[C@H]1O[C@@H]1O[C@H](CO)[C@H](O)[C@H](O)[C@H]1O,> 100,12.5,> 100,12.5,> 100,> 100,6.25,12.5,6.25,> 100
CCCCC/C=C/C=C/[C@@H](O)C/C=C/C=C/C(=O)O[C@@H]1[C@@H](O)[C@H](c2c(O)cc(O)cc2CO)O[C@H](CO)[C@H]1O[C@@H]1O[C@H](COC(=O)c2cccc(-c3ccc(OC)cc3)c2)[C@H](O)[C@H](O)[C@H]1O[C@@H]1O[C@H](CO)[C@H](O)[C@H](O)[C@H]1O,100,3.12,100,1.56,50,50,0.78,1.56,1.56,25
CCCCC/C=C/C=C/[C@@H](O)C/C=C/C=C/C(=O)O[C@@H]1[C@@H](O)[C@H](c2c(O)cc(O)cc2CO)O[C@H](CO)[C@H]1O[C@@H]1O[C@H](COC(=O)c2ccc(-c3ccccc3)cc2)[C@H](O)[C@H](O)[C@H]1O[C@@H]1O[C@H](CO)[C@H](O)[C@H](O)[C@H]1O,25,0.78,12.5,0.78,12.5,12.5,0.78,0.78,1.56,12.5
CCCCC/C=C/C=C/[C@@H](O)C/C=C/C=C/C(=O)O[C@@H]1[C@@H](O)[C@H](c2c(O)cc(O)cc2CO)O[C@H](CO)[C@H]1O[C@@H]1O[C@H](COC(=O)c2ccc(Oc3ccccc3)cc2)[C@H](O)[C@H](O)[C@H]1O[C@@H]1O[C@H](CO)[C@H](O)[C@H](O)[C@H]1O,50,3.12,100,3.12,50,50,1.56,3.12,3.12,> 100
CCCCC/C=C/C=C/[C@@H](O)C/C=C/C=C/C(=O)O[C@@H]1[C@@H](O)[C@H](c2c(O)cc(O)cc2CO)O[C@H](CO)[C@H]1O[C@@H]1O[C@H](COC(=O)c2ccc(CCCC)cc2)[C@H](O)[C@H](O)[C@H]1O[C@@H]1O[C@H](CO)[C@H](O)[C@H](O)[C@H]1O,> 100,1.56,> 100,3.12,> 100,> 100,0.78,3.12,1.56,> 100
CCCCC/C=C/C=C/[C@@H](O)C/C=C/C=C/C(=O)O[C@@H]1[C@@H](O)[C@H](c2c(O)cc(O)cc2CO)O[C@H](CO)[C@H]1O[C@@H]1O[C@H](COC(=O)c2ccc(-c3ccc(-c4ccccc4)cc3)cc2)[C@H](O)[C@H](O)[C@H]1O[C@@H]1O[C@H](CO)[C@H](O)[C@H](O)[C@H]1O,25,0.78,12.5,1.56,12.5,12.5,0.78,0.78,3.12,12.5
CCCCC/C=C/C=C/[C@@H](O)C/C=C/C=C/C(=O)O[C@@H]1[C@@H](O)[C@H](c2c(O)cc(O)cc2CO)O[C@H](CO)[C@H]1O[C@@H]1O[C@H](COC(=O)c2ccc(-c3ccc(OC(C)C)cc3)cc2)[C@H](O)[C@H](O)[C@H]1O[C@@H]1O[C@H](CO)[C@H](O)[C@H](O)[C@H]1O,25,0.78,6.25,1.56,12.5,12.5,0.78,0.78,0.78,12.5
CCCCC/C=C/C=C/[C@@H](O)C/C=C/C=C/C(=O)O[C@@H]1[C@@H](O)[C@H](c2c(O)cc(O)cc2CO)O[C@H](CO)[C@H]1O[C@@H]1O[C@H](COC(C)=O)[C@H](O)[C@H](O)[C@H]1O[C@@H]1O[C@H](CO)[C@H](O)[C@H](O)[C@H]1O,> 100,> 100,> 100,> 100,> 100,> 100,> 100,> 100,> 100,> 100
CCCCC/C=C/C=C/[C@@H](O)C/C=C/C=C/C(=O)O[C@@H]1[C@@H](O)[C@H](c2c(O)cc(O)cc2CO)O[C@H](CO)[C@H]1O[C@@H]1O[C@H](COC(=O)c2cc3ccccc3c3ccccc23)[C@H](O)[C@H](O)[C@H]1O[C@@H]1O[C@H](CO)[C@H](O)[C@H](O)[C@H]1O,100,3.12,100,3.12,50,50,3.12,3.12,6.25,100
CCCCC/C=C/C=C/[C@@H](O)C/C=C/C=C/C(=O)O[C@@H]1[C@@H](O)[C@H](c2c(O)cc(O)cc2CO)O[C@H](CO)[C@H]1O[C@@H]1O[C@H](COC(=O)c2cccc3ccccc23)[C@H](O)[C@H](O)[C@H]1O[C@@H]1O[C@H](CO)[C@H](O)[C@H](O)[C@H]1O,50,6.25,50,3.12,50,50,3.12,3.12,1.56,100
CCCCC/C=C/C=C/[C@@H](O)C/C=C/C=C/C(=O)O[C@@H]1[C@@H](O)[C@H](c2c(O)cc(O)cc2CO)O[C@H](CO)[C@H]1O[C@@H]1O[C@H](COC(=O)c2ccc(-c3ccc(CC)cc3)cc2)[C@H](O)[C@H](O)[C@H]1O[C@@H]1O[C@H](CO)[C@H](O)[C@H](O)[C@H]1O,25,0.39,12.5,0.78,25,25,0.2,0.78,0.78,25
CCCCC/C=C/C=C/[C@@H](O)C/C=C/C=C/C(=O)O[C@@H]1[C@@H](O)[C@H](c2c(O)cc(O)cc2CO)O[C@H](CO)[C@H]1O[C@@H]1O[C@H](COC(=O)c2ccc(-c3ccc(OCc4ccccc4)cc3)cc2)[C@H](O)[C@H](O)[C@H]1O[C@@H]1O[C@H](CO)[C@H](O)[C@H](O)[C@H]1O,25,1.56,12.5,1.56,50,50,0.78,3.12,3.12,25
CCCCC/C=C/C=C/[C@@H](O)C/C=C/C=C/C(=O)O[C@@H]1[C@@H](O)[C@H](c2c(O)cc(O)cc2CO)O[C@H](CO)[C@H]1O[C@@H]1O[C@H](COC(=O)CCCCCCCCC)[C@H](O)[C@H](O)[C@H]1O[C@@H]1O[C@H](CO)[C@H](O)[C@H](O)[C@H]1O,> 100,12.5,> 100,12.5,> 100,> 100,12.5,6.25,12.5,> 100
